The values below come from paper PMC9653453, “Development of truncated elastin-like peptide analogues with improved temperature-response and self-assembling properties” (Scientific Reports, 2022).

Values joined by “and” are separate entries in the source; they are usually repeats but may differ in a detail not shown here. Equal values may be shown once. Ends that are not written are not given here.

A short description of series [1]: Optical microscopy of peptide aggregates with image analysis of particle size. It counts as physicochemical. Particulars: peptide 10 mg/mL, phosphate buffer pH 7.4. The protocol:
The morphology of the coacervates of (FPGVG)4, (FPGV)4, and (FPG)4 was observed using optical microscopy. Light field observation was performed using a Leica DM IL LED microscope (Leica Microsystems CMS, Wetzlar, Germany) equipped with HI PLAN 40 × (Leica Microsystems CMS) and HC PLAN 10 × (Leica Microsystems CMS) objectives. Each peptide was dissolved in phosphate buffer (27.4 mM Na2HPO4, 17.8 mM NaH2PO4, at pH 7.4) to a concentration of 10 mg/mL and applied on a glass slide. Sample imaging was performed below and above the Tt of each peptide using a Thermo Plate TP-CHSQM (Tokai Hit Co., Ltd., Shizuoka, Japan). Sample images above Tt were taken 3 min after the sample reached the target temperature. The details of the image analysis is shown in the Supplementary Information file.
Size distribution of coacervates of ELP analogues formed above the Tt was analyzed using optical microscopy images of each peptide. Image analysis was performed using Image J/Fiji (NIH, USA), an open-source image analysis software.^2 Spatial calibration was carried out using […] in original images. The images of peptide coacervates were converted to a binary image via the menu command Image > Type > 8-bit. Using "analyze particle" command, the Feret diameters of the particles within the image were measured.

Series [2] can be described thus: Dynamic light scattering (DLS) size distribution of coacervates. Type of series: physicochemical. Particulars: phosphate buffer pH 7.4; for Temperature-dependent particle size by DLS (in words): 10 to 50 ℃ in 10 ℃ steps, peptide concentrations as in Fig. 3 (2.0-50 mg/mL); for Hydrodynamic diameter (DLS): peptide 10 mg/mL, filtered 0.2 µm. As to the method: The distribution of the particle size in the truncated ELP analogue solution was analyzed via DLS using Zetasizernano ZS (Malvern Instruments Ltd., Worcestershire, U.K.) in a measurement cell ZEN0112 (Malvern Instruments Ltd.)[33]. Peptide samples of different concentrations (2.0, 10, 20, 30, or 50 mg/mL) were prepared by dissolving each peptide in phosphate buffer (27.4 mM Na2HPO4, 17.8 mM NaH2PO4, pH 7.4) and filtered using the Millex-LG filter (pore size 0.2 µm, Merck Millipore) before measurement. DLS analysis was performed by increasing the temperature at 10 ℃ intervals from 10 to 50 ℃. Measurement duration was selected automatically. Parameter dataset “protein” (dataset: refractive index, 1.450; absorption, 0.001) was used as the material parameter, and parameter dataset “water” (dataset: refractive index, 1.330; viscosity, 0.8872) was chosen as the dispersant parameter. Attenuation was selected automatically. Each concentration was measured at least three times.

The nature of series [3]: Turbidity measurement (phase transition temperature Tt, coacervation) in phosphate buffer pH 7.4. It counts as physicochemical. Conditions: for Coacervation on heating (in words): peptide 50 mg/mL (69.5 mM); for Tt, phase transition temperature: heating 0.5 ℃/min from 5 ℃, mean ± SE, at least three measurements. The protocol: Turbidity measurements were performed in accordance with previous reports. The temperature-dependent self-assembling properties of the ELP analogues were evaluated using a JASCO V-660 spectral photometer (JASCO Co., Tokyo, Japan). Peptide sample solutions of different concentrations (2.0, 5.0, 10, 20, 30, or 50 mg/mL) were prepared by dissolving each peptide (except for AADAAC-(FPGV)n) in phosphate buffer (27.4 mM Na2HPO4, 17.8 mM NaH2PO4, pH 7.4). AADAAC-(FPGV)4 was dissolved in Tris–HCl buffer solution (50.0 mM Tris, at pH 8.4 or 50.0 mM Tris, 154 mM NaCl, at pH 8.4) to prepare sample solutions of a concentration of 0.5 or 10 mg/mL in the absence or presence of the equimolar amount of CdCl2. Turbidity was measured at 400 nm with increasing or decreasing temperature at a rate of 0.5 ℃/min from 5 ℃. The concentration of each sample solution was measured at least three times. The self-assembling property was described by the phase transition temperature (Tt), which is the temperature at which the turbidity of the solution reaches half the maximum value.

A short description of series [4]: RP-UPLC retention time, used as measure of peptide hydrophobicity. Type of series: physicochemical. Conditions: RP-UPLC-MS; chromatographic. As to the method: Peptide synthesis was carried out using the conventional solid-phase peptide synthesis procedure (see supplementary information). The synthesized peptides were purified using RP-HPLC. The purity and molecular weight of each peptide were confirmed using RP-UPLC-MS (Table S1 and Fig. S1). […]
Retention times of each peptide were determined by RP-UPLC-MS.

The nature of series [5]: Colorimetric (xylenol orange) determination of Cd^2+ removal by peptide coacervation. Particulars: peptide 1.0 mg/mL, mean ± SE. The protocol:
Colorimetric analyses of cadmium ions (Cd^2+) were carried out to evaluate the number of metal ions absorbed into the coacervation phase of the peptides by using a spectral photometer (JASCO V-660)[45]. […] The peptide solutions were incubated at 4 ℃ for 3, 6, or 12 h and then at 60 ℃ for 1.5 h to separate into the lower coacervation phase from the upper equilibrium solution phase. After incubation, the peptide solution was immediately centrifuged at room temperature for 2 min (6,200 rpm) to remove aggregates. An aliquot of 333 µL of supernatant of the equilibrium solution phase was added to 600 µL of acetate buffer solution (pH5.4) including 67 μM of XO and incubated for 10 min. Subsequently, the concentrations of Cd^2+ or Zn^2+ were determined by measuring the absorbance at 575 nm or 550 nm, respectively, which corresponds to the absorbance of the metal-XO complex. The amount of metal ions absorbed in the peptide solution was determined by the calibration line, which was prepared in the same manner by using a series of standard CdCl2 or ZnCl2 aqueous solutions of known concentrations. The homogeneity of variances between the concentration of each metal ion in the supernatant and the control solution was confirmed using the F test. The statistical significance of the difference between the concentration of each metal ion in the supernatant and the control solution was determined using the Student's t-test. Results were considered statistically significant at P values of ≤ 0.01.

Series [6] can be described thus: Turbidity measurement (phase transition temperature Tt, coacervation) in phosphate buffer pH 7.4. It counts as physicochemical. Particulars: peptide 1.0 mg/mL, turbidity at 400 nm, heating 0.5 ℃/min from 5 ℃, half-maximal turbidity, mean ± SE, at least three measurements.
The mark [7] stands for this setting: phosphate buffer pH 7.4, turbidity at 400 nm.
Setting [8] is: peptide 5.0 mg/mL, phosphate buffer pH 7.4, turbidity at 400 nm, half-maximal turbidity.
The mark [9] stands for this setting: peptide 10 mg/mL, phosphate buffer (27.4 mM Na2HPO4, 17.8 mM NaH2PO4, pH 7.4), turbidity at 400 nm, Tt = temperature at half-maximal turbidity.
Where [10] appears, read: peptide 2.0 mg/mL, phosphate buffer pH 7.4, turbidity at 400 nm, half-maximal turbidity.

In the case of FPGFPGFPGFPG-NH2 [(FPG)4, H-(FPG)4-NH2], the “Morphology of aggregates (optical microscopy, in words)” value in series [1] is recorded as “filamentous aggregates”. Besides, the “Temperature-dependent particle size by DLS (in words)” value (from here on “Temperature-dependent particle size”) in series [2] was “formed irreversible aggregates in the aqueous solution at 10 °C”. Besides, in series [3] (peptide 10 mg/mL, aqueous solution / phosphate buffer pH 7.4, with elapsed time without a temperature rise), the “Aggregation behaviour in aqueous solution (in words)” value is “formed irreversible aggregates”. In addition, in series [4], the “UPLC retention time (measure of hydrophobicity)” value (from here on “UPLC retention time”) is reported as 1.835 min.
Take “FPGFPGV-NH2 [(FPG)(FPGV), H-(FPG)(FPGV)-NH2]”: the “Temperature-dependent particle size” value in series [2] is recorded as “did not show micrometer-sized particles”. Further, in series [3] (setting [7]), the “Coacervation on heating (in words)” value is given as “did not show coacervation”. In addition, the “UPLC retention time” value in series [4] came out at 0.760 min.
For FPGVFPG-NH2 [(FPGV)(FPG)], in that order: “did not show micrometer-sized particles”, “did not show coacervation” and 0.466 min.
FPGVFPGV-NH2 [(FPGV)2]: the “Temperature-dependent particle size” value in series [2] is listed as “did not show micrometer-sized particles”. In addition, the “Turbidity change / coacervation on heating (in words)” value in series [3] (peptide 30 mg/mL (36.7 mM), phosphate buffer pH 7.4, turbidity at 400 nm) is reported as “did not exhibit turbidity change”. The “UPLC retention time” value in series [4] was 0.583 min.
Regarding FPGVFPGVFPGV-NH2 [(FPGV)3], in series [2], the “Temperature-dependent particle size” value is listed as “formed sub-micron particles below Tt, which grew into micrometer-sized particles above Tt”. Moreover, the “Tt, phase transition temperature” value in series [3] (setting [8]) stood at 71.6 ± 0.8 °C; in series [3] (setting [9]) it was 45.2 ± 0.9 °C. In addition, in series [4], the “UPLC retention time” value was 1.739 min.
For the substance FPGVFPGVFPGVFPGV-NH2 [(FPGV)4], in series [1], the “Morphology of aggregates (optical microscopy, in words)” value is on record as “spherical aggregates”. Moreover, in series [1] (above Tt ((FPGVG)4 40 °C, (FPGV)4 25 °C), ImageJ/Fiji), the “Particle size of coacervates (optical microscopy image analysis, Feret diameter)” value is reported as 2–4 µm. Moreover, the “Concentration of metal ion in the supernatant” value in series [5] (Cd^2+ (0.236 mM CdCl2), incubation 12 h at 4 ℃ then 60 ℃ 1.5 h, Tris-HCl (50.0 mM Tris, 599 mM NaCl, pH 8.0), at least three measurements) turned out to be 19.0 ± 0.97 ppm. In addition, in series [5] (Cd^2+, incubation 12 h, versus control without peptide), the Removal efficiency was 27.2% and 27.2 ± 0.04%. Moreover, the “Tt, phase transition temperature” value amounted to 51.3 ± 0.1 °C in series [6], 36.7 ± 0.3 °C in series [3] (setting [10]), 23.4 ± 0.1 °C in series [3] (setting [8]) and 17.0 ± 0.2 °C in series [3] (setting [9]). For the same substance, the “Temperature-dependent particle size” value in series [2] is “rapidly formed micrometer-sized particles at 20 °C”. For the same substance, the “UPLC retention time” value in series [4] turned out to be 2.431 min.
As for “FPGVGFPGVGFPGVGFPGVGFPGVG-NH2 [(FPGVG)5, reference compound]”, the “Tt, phase transition temperature” value in series [6] was 56.6 ± 1.3 °C; in series [3] (setting [10]), 39.0 ± 0.2 °C; in series [3] (setting [8]) it was 25.6 ± 1.2 °C; in series [3] (setting [9]), 20.5 ± 0.1 °C. Also, the “Hydrodynamic diameter (DLS)” value is “approximately 3 nm” in series [2] (at 10 ℃, Zetasizer cumulant fit) and 3–5 µm in series [2] (at temperatures above 20 ℃). Moreover, the “UPLC retention time” value in series [4] was found to be 2.691 min.
Turning to “VFPGVFPGVFPGVFPG-NH2 [(VFPG)4, H-(VFPG)n-NH2 (n = 4)]”, in series [3] (setting [9]), the “Tt, phase transition temperature” value turned out to be 45.3 ± 0.6 °C. In series [4], the “UPLC retention time” value is recorded as 2.493 min.
